We go through 3 compounds from patent publication US9120762B2, “Salts of bicyclo-substituted pyrazolon azo derivatives, preparation method and use thereof” (Jiangsu Hengrui Medicine Co., Ltd., priority 2009, dated 2015).

Series [1] in a line: Hygroscopicity assay, standing 48 hours at 25° C., humidity 79%. To be noted: for Percentage of weight gain / hygroscopicity: 48 hours, 25° C., humidity 79%. It is filed as physicochemical. The protocol:
The hygroscopicity test of the compounds of the present disclosure after standing for 48 hours
1. The arid glass weighing bottle with a tap (external diameter is 50 mm, the height is 15 mm) was placed at 25° C.±1° C. suitably in a thermostatic drier (saturated ammonium sulfate solution was laid in the lower part, humidity was 79%) the day before the assay, precise weight was measured as (m1);
2. The above weighing bottle was covered with the compounds of the invention (about 1 g), and the thickness of the compounds were generally 1 mm, precise weight was measured as (m2);
3. The mouth of the weighing bottle was kept open and placed with the tap in the above conditions with constant temperature and humidity for 48 hours;
4. Put the tap back on the bottle, precise weight was measured as (m3)
The degree of hygroscopicity was defined as follows: […]
Deliquesce: turning into liquid by absorbing enough moisture.
High hygroscopicity: the percentage of hygroscopicity weight gain is not less than 15%.
Hygroscopicity: the percentage of hygroscopicity weight gain is less than 15%, but not less than 2%.
Sparing hygroscopicity: the percentage of hygroscopicity weight gain is less than 2%, but not less than 0.2%.
No hygroscopicity or almost no hygroscopicity: the percentage of hygroscopicity weight gain is less than 0.2%.

For another series, the target named is T1, human TPOR (Homo sapiens, UniProt P40238).
T1 construct: host or cells: BaF3 (murine pro-B cells), stably transfected, G418-selected
T1 sequence (P40238 26-635): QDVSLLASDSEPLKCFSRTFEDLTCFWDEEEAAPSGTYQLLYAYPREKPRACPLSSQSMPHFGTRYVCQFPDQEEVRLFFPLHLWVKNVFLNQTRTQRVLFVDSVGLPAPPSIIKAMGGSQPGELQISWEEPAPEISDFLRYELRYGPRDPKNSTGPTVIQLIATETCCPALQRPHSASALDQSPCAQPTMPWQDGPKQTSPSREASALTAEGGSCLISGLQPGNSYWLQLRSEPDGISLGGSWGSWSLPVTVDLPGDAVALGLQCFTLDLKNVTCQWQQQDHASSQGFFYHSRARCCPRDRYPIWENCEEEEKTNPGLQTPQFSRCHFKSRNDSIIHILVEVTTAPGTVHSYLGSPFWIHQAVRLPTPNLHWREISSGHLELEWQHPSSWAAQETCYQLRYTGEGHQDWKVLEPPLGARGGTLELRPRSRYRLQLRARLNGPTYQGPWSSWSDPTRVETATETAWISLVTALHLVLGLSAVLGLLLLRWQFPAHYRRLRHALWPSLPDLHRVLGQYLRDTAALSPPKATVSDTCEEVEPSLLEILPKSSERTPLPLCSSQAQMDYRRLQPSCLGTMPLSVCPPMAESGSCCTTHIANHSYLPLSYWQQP
As to the kind of experiment: Proliferation effect on BAF3-TPOR cell (CCK-8). Particulars: rate relative to rhTPO positive control. The format is cell-based. In outline: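 BaF3 cells stably expressing dual-site-mutated human TPOR were washed free of IL-3 and plated at 100,000 cells/mL with test solutions of 0.001–30 μM, then incubated 24 h at 37 °C. After a further 24 h with CCK-8, OD450 was read. Proliferation = (S−B)/(P−B) against a rhTPO control, fitted for EC50.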

Series [2] is described as follows: Solubility assay in water, 0.1% hydrochloric acid and methanol. The format is physicochemical. To be noted: read-out: solubility. In outline: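 Solubility was classed by the solvent volume needed to dissolve 1 g (mL) of solute, from "very soluble" (<1 mL) to "practically insoluble" (not fully dissolved in 10000 mL).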
Where [3] appears, read: 0.1% hydrochloric acid, simulated gastric fluid, 0.1% hydrochloric acid.

Where two headings read alike, the source gives them in different places. Bounds are passed on as bounds.

For `CC1=NN(c2ccc3c(c2)CCCC3)C(=O)/C1=N\Nc1cccc(-c2ccc(C(=O)O)o2)c1O` [Example 8, (Z)-5-(2-hydroxy-3-{N′-[3-methyl-5-oxo-1-(5,6,7,8-tetrahydro-naphthalen-2-yl)-1,5-dihydro-pyrazol-4-ylidene]-hydrazino}-phenyl)-furan-2-carboxylic acid bis-(choline)], in series [1], the “Percentage of weight gain” value amounted to 13.9% and the hygroscopicity result is “Hygroscopicity (the percentage of hygroscopicity weight gain is less than 15%, but not less than 2%)”. Moreover, on human TPOR, the concentration giving a half-maximal response (EC50) came to 4.4 nM. Besides, the solubility in series [2] (setting [3]) was below 1 µg/mL.

Turning to `CC1=NN(c2ccc3c(c2)CCCC3)C(=O)/C1=N\Nc1cccc(-c2ccc(C(=O)O)o2)c1O` [Example 12, (Z)-5-(2-hydroxy-3-{N′-[3-methyl-5-oxo-1-(5,6,7,8-tetrahydro-naphthalen-2-yl)-1,5-dihydro-pyrazol-4-ylidene]-hydrazino}-phenyl)-furan-2-carboxylic acid bis-(trometamol)], in series [1], the “Percentage of weight gain” value was found to be 2.71% and the hygroscopicity entry was “Hygroscopicity (the percentage of hygroscopicity weight gain is less than 15%, but not less than 2%)”. Moreover, the EC50 on human TPOR was found to be 14 nM.

Turning to `CC1=NN(c2ccc3c(c2)CCCC3)C(=O)/C1=N\Nc1cccc(-c2ccc(C(=O)O)o2)c1O.NCCO.NCCO` [Example 7, (Z)-5-(2-hydroxy-3-{N′-[3-methyl-5-oxo-1-(5,6,7,8-tetrahydro-naphthalen-2-yl)-1,5-dihydro-pyrazol-4-ylidene]-hydrazino}-phenyl)-furan-2-carboxylic acid bis-(ethanolamine)], the “Percentage of weight gain” value in series [1] worked out at 1.2%. For the same compound, in series [1], the hygroscopicity entry is “Sparing hygroscopicity (the percentage of hygroscopicity weight gain is less than 2%, but not less than 0.2%)”. Moreover, in series [1] (comparing to the other salts), the “hygroscopicity, in words” value is on record as “less hydroscopic”. Further, the EC50 at human TPOR was found to be 19 nM. For the same compound, the solubility was 29 µg/mL in series [2] (setting [3]); 22400 µg/mL in series [2] (methanol, organic solvent or mixture, methanol); 3960 µg/mL in series [2] (water).
